From PubChem BioAssay (NCI)
Where “and” joins values, the source holds several entries; their conditions need not be identical. Equal values may be shown once.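 These data come from cells grown in 96-well plates and exposed to compound for 48 hours at five concentrations. GI50: concentration for 50% inhibition of growth. At the TGI there is no net growth.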

Key:
Assay in all cases: NCI-60 cell line screen, 48 h
[1] = system: M14 melanoma
[2] = system: SR leukemia
[3] = system: EKVX NSCLC
[4] = system: HT29 colon
[5] = system: KM12 colon
[6] = system: SN12C renal
[7] = system: SK-MEL-2 melanoma
[8] = system: NCI-H226 lung
[9] = system: TK-10 renal
[10] = system: DU-145 prostate

With `CCOC(=O)C1=C(C)N(Cc2ccccc2)C(=O)C1CC#N` (centres undefined) the TGI [1] was > 100 µM, the TGI [2] was > 100 µM and the TGI [3] was > 100 µM. The TGI [4] was > 100 µM, the TGI [5] was > 100 µM and the TGI [6] was > 100 µM. The TGI [7] was > 100 µM.

Compound `CCN(CC)CCOc1ccc(/C=C2\C[C@H]3[C@H]4CC=C5C[C@@H](O)CC[C@]5(C)[C@H]4CC[C@]3(C)[C@H]2O)cc1OC` has a GI50 [1] of 6.12 µM, a TGI [1] of 16.8 µM and a GI50 [8] of 7.71 µM. For the same compound, the TGI [8] was 16 µM, the GI50 [9] was 5.49 µM and the TGI [9] was 11.5 µM. For the same compound, the GI50 [4] was 10.9 µM, the TGI [4] was > 50 µM and the GI50 [5] was 8.1 µM. It also gave a TGI [5] of 17 µM, a GI50 [6] of 6.78 µM and a TGI [6] of 14 µM. The GI50 [7] was 0.135 µM, the TGI [7] was > 50 µM and the GI50 [10] was 3.86 µM. The TGI [10] was 10.2 µM.

`C=C(C)C1CC=C(C)CC1` (centres undefined) was tested, and the GI50 [1] was > 100 µM, the TGI [1] was > 100 µM and 1700 µM and the GI50 [8] was > 100 µM. For the same compound, the TGI [8] was > 100 µM and 1570 µM, the GI50 [2] was > 100 µM and the TGI [2] was > 100 µM and 2050 µM. The GI50 [3] was > 100 µM, the TGI [3] was > 100 µM and 1830 µM and the GI50 [9] was > 100 µM. For the same compound, the TGI [9] was > 100 µM and 1760 µM, the GI50 [4] was > 100 µM and the TGI [4] was > 100 µM and 1730 µM. The GI50 [5] was > 100 µM, the TGI [5] was > 100 µM and 1830 µM and the GI50 [6] was > 100 µM. For the same compound, the TGI [6] was > 100 µM and 1640 µM, the GI50 [7] was > 100 µM and the TGI [7] was > 100 µM and 1720 µM.

With `O=C(O)C1C2C=CC(C2)C1C(=O)O` (centres undefined) the GI50 [1] was > 100 µM, the TGI [1] was > 100 µM and the GI50 [8] was > 100 µM. The TGI [8] was > 100 µM, the GI50 [2] was > 100 µM and the TGI [2] was > 100 µM. The GI50 [4] was > 100 µM, the TGI [4] was > 100 µM and the GI50 [5] was > 100 µM. For the same compound, the TGI [5] was > 100 µM, the GI50 [6] was > 100 µM and the TGI [6] was > 100 µM. The GI50 [7] was > 100 µM, the TGI [7] was > 100 µM and the GI50 [10] was > 100 µM. The TGI [10] was > 100 µM.

`COC(=O)NC(=Nc1ccc(Oc2ccccc2)cc1NC=O)NC(=O)OC` was tested, and the TGI [1] was > 100 µM, the TGI [8] was 9.4 µM and the TGI [3] was > 100 µM. For the same compound, the TGI [9] was > 100 µM, the TGI [4] was 2.96 µM and the TGI [5] was > 100 µM. The TGI [6] was > 100 µM.

In the case of `O=C(CC1(O)C(=O)Nc2ccccc21)c1ccc(F)cc1` (centres undefined), the TGI [1] is reported as > 100 µM, the TGI [8] is reported as > 100 µM and the TGI [3] is reported as > 100 µM. The TGI [9] was > 100 µM, the TGI [4] was > 100 µM and the TGI [6] was > 100 µM. The TGI [7] was > 100 µM.

`NCCCCCCCCCCCn1c2c(c3ccccc3c1=O)C(=O)c1ccccc1-2` was tested, and the GI50 [1] was 5.92 µM, the TGI [1] was 25.7 µM and the GI50 [8] was 25.2 µM. For the same compound, the TGI [8] was 54.3 µM, the GI50 [3] was 22.5 µM and the TGI [3] was 45.7 µM. For the same compound, the GI50 [9] was 3.14 µM, the TGI [9] was 8.97 µM and the GI50 [5] was 3.95 µM. For the same compound, the TGI [5] was 37.8 µM, the GI50 [6] was 1.98 µM and the TGI [6] was 3.61 µM. For the same compound, the GI50 [10] was 4.6 µM and the TGI [10] was 14.8 µM.

For `C1COCCOCCOCCOCCOCCO1.[Cl][Sn]([Cl])([c]1ccccc1)[c]1ccccc1`, the GI50 [1] was 4.25 µM, the TGI [1] was 12.4 µM and the GI50 [8] was 11.5 µM. For the same compound, the TGI [8] was 27.9 µM, the GI50 [3] was 6.77 µM and the TGI [3] was 19 µM. For the same compound, the GI50 [9] was 2.78 µM, the TGI [9] was 7.01 µM and the GI50 [4] was 7.28 µM. It also gave a TGI [4] of 18.9 µM, a GI50 [5] of 12.6 µM and a TGI [5] of 26.4 µM. It also gave a GI50 [6] of 7.02 µM, a TGI [6] of 20.4 µM and a GI50 [7] of 1.7 µM. It also gave a TGI [7] of 3.25 µM.

In the case of `C/C=C(/CCC1NCCC2c3ccccc3NC12)[Si](C)(C)C` (centres undefined), the TGI [1] is reported as 11.8 µM, the TGI [8] is reported as 27.1 µM and the TGI [2] is reported as 12.5 µM. The TGI [3] was 27.4 µM, the TGI [9] was 28.8 µM and the TGI [4] was 8.53 µM. For the same compound, the TGI [5] was 15.6 µM, the TGI [6] was 23.9 µM and the TGI [7] was 26.7 µM.

In the case of `CSc1nc2c(nc(N)n2C2OC(COC(C)=O)C(OC(C)=O)C(OC(C)=O)C2OC(C)=O)c(=O)n1C` (centres undefined), the TGI [1] is reported as > 100 µM, the TGI [8] is reported as > 100 µM and the TGI [3] is reported as > 100 µM. The TGI [9] was > 100 µM, the TGI [4] was > 100 µM and the TGI [5] was > 100 µM. The TGI [6] was > 100 µM and the TGI [7] was > 100 µM.

For `CC(=O)[CH-]C(=O)c1ccccc1.CC(=O)[CH-]C(=O)c1ccccc1.CC[C@H](/C=C/C(C)[C@H]1CCC2[C@@H]3CC=C4C[C@@H]([O-])CC[C@]4(C)C3CC[C@@]21C)C(C)C.CC[O-].[Ti+4]` (some centres undefined), the GI50 [1] was > 100 µM, the TGI [1] was > 100 µM and the GI50 [8] was > 100 µM. The TGI [8] was > 100 µM, the GI50 [3] was > 100 µM and the TGI [3] was > 100 µM. For the same compound, the GI50 [9] was > 100 µM, the TGI [9] was > 100 µM and the GI50 [4] was > 100 µM. For the same compound, the TGI [4] was > 100 µM, the GI50 [5] was > 100 µM and the TGI [5] was > 100 µM. The GI50 [6] was > 100 µM, the TGI [6] was > 100 µM and the GI50 [7] was > 100 µM. For the same compound, the TGI [7] was > 100 µM.

For `Cn1c(=O)c2ccc(-c3ccc(Br)cc3)nc2n(C)c1=O`, the TGI [1] was > 100 µM, the TGI [8] was > 100 µM and the TGI [2] was > 100 µM. For the same compound, the TGI [3] was > 100 µM, the TGI [9] was > 100 µM and the TGI [4] was > 100 µM. For the same compound, the TGI [5] was > 100 µM and the TGI [7] was > 100 µM.

`COc1ccc(-c2nc(Nc3ccc(-c4nc5ccccc5[nH]4)cc3)nc(N3CCOCC3)n2)cc1` showed a GI50 [1] of 1.94 µM, a TGI [1] of 4.03 µM and a GI50 [8] of 3.32 µM. The TGI [8] was 8.6 µM, the GI50 [3] was 2.6 µM and the TGI [3] was > 100 µM. It also gave a GI50 [9] of 2.91 µM, a TGI [9] of 8.54 µM and a GI50 [4] of 2.23 µM. For the same compound, the TGI [4] was 5.39 µM, the GI50 [5] was 2.06 µM and the TGI [5] was 5.69 µM. The GI50 [6] was 3.19 µM, the TGI [6] was 23 µM and the GI50 [7] was 2.33 µM. The TGI [7] was 5.49 µM, the GI50 [10] was 4.54 µM and the TGI [10] was > 100 µM.

Work on `CC(=O)[CH-]C(=O)c1ccccc1.CC(=O)[CH-]C(=O)c1ccccc1.CC1(C)OCC(C2OC3OC(C)(C)OC3C2[O-])O1.CC1(C)OCC(C2OC3OC(C)(C)OC3C2[O-])O1.[Ti+4]` (centres undefined) yielded a GI50 [1] of 16.1 µM, a TGI [1] of 37.6 µM and a GI50 [3] of 14.1 µM. The TGI [3] was 30.1 µM, the GI50 [9] was 34.1 µM and the TGI [9] was > 100 µM. For the same compound, the GI50 [4] was 16.3 µM, the TGI [4] was 40.6 µM and the GI50 [5] was 13.2 µM. For the same compound, the TGI [5] was 42.8 µM, the GI50 [6] was 17.7 µM and the TGI [6] was 43.4 µM. For the same compound, the GI50 [7] was 7.49 µM and the TGI [7] was 25.5 µM.

For `COc1cccc(NC(=O)C(C)(C)C)c1SSc1c(NC(=O)C(C)(C)C)cccc1OC`, the TGI [1] was 32.5 µM, the TGI [8] was > 93.6 µM and the TGI [2] was 55.3 µM. For the same compound, the TGI [3] was > 100 µM, the TGI [9] was > 100 µM and the TGI [4] was > 65.1 µM. For the same compound, the TGI [5] was > 95.5 µM, the TGI [6] was > 54.9 µM and the TGI [7] was > 100 µM.

In the case of `Cn1cc(-c2csc(-c3cn(CCCCN4CCCCC4)c4ccc(F)cc34)n2)c2cccnc21`, the GI50 [8] is reported as 1.68 µM, the TGI [8] is reported as 3.38 µM and the GI50 [9] is reported as 1.58 µM. The TGI [9] was 2.92 µM, the GI50 [4] was 1.7 µM and the TGI [4] was 3.16 µM. For the same compound, the GI50 [7] was 2.3 µM, the TGI [7] was 5.98 µM and the GI50 [10] was 1.76 µM. It also gave a TGI [10] of 3.14 µM.

`CCCCCCCCCCCCCCCC(=O)N[C@H](/C=C/[C@H](O)CCCCCCCCCCCCC)CO` was tested, and the GI50 [1] was > 100 µM, the TGI [1] was > 100 µM and the GI50 [8] was > 100 µM. The TGI [8] was > 100 µM, the GI50 [3] was > 100 µM and the TGI [3] was > 100 µM. The GI50 [9] was > 100 µM, the TGI [9] was > 100 µM and the GI50 [4] was > 100 µM. The TGI [4] was > 100 µM, the GI50 [5] was > 100 µM and the TGI [5] was > 100 µM. The GI50 [6] was > 100 µM, the TGI [6] was > 100 µM and the GI50 [10] was > 100 µM. The TGI [10] was > 100 µM.
